The nature of series [1]: Solubility in biorelevant media. The following applies: thermodynamic from solid; for solubility at 1 h: FaSSGF, 37 °C, fassgf or other biorelevant. Put shortly: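 LC–MS quantification of supernatants, after two centrifugations, in triplicate against calibration standards. Media: FaSSGF sampled at 1 h; FaSSIF-V2, FeSSIF-V2 and pH 7.4 PBS sampled at 5–6 h; all at 37 °C on an orbital mixer at 600 rpm.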

A short description of series [2]: Bidirectional permeability across Caco-2 cell monolayers. To be noted: human. Put shortly:
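Donor and acceptor concentrations measured by LC–MS to give Papp, mass balance and efflux ratio (mean B–A over A–B Papp). Media were pH 7.4 HEPES-buffered HBSS or human plasma on both sides; for plasma, Papp used the donor fraction unbound. Donor contained 0.1% v/v DMSO.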
Background: Caco-2 monolayers are a common model of the intestinal barrier.

A short description of series [3]: Plasma protein binding via rapid equilibrium dialysis (RED), 10% plasma. The series is classed as in vitro ADME, human. To be noted: human, 10% pooled plasma (diluted 1:10), pH 7.4, RED, 10% plasma corrected for dilution; for fraction unbound at 6 h: 6 h dialysis; for fraction unbound at 24 h: presaturation of device and 24 h dialysis. In outline:
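Fraction unbound in undiluted plasma was derived from mean total and unbound levels measured in 10% plasma. That plasma was pooled from 3–4 donors, diluted in pH 7.4 phosphate/0.04 M NaCl buffer, spiked at ~1000–3000 ng/mL and equilibrium-dialysed at 37 °C in pre-saturated RED devices, n = 3–4.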

A short description of series [4]: Binding to human liver microsomes via ultracentrifugation. The following applies: human, liver microsomes, pH 7.4, 0.4 mg/mL protein, read-out: Fraction unbound, HLM. In kind it is in vitro ADME. In outline:
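Unbound fraction by ultracentrifugation: Cunbound measured in protein-free supernate, Ctotal from spiked tubes held at 37 °C, sampled at start and end to check degradation. Matrix was 0.4 mg/mL human liver microsomal protein, 0.1 M phosphate pH 7.4; matrix-matched analysis against one calibration curve.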
On the technique in general: Microsomes from liver hold many membrane-bound enzymes, among them those of drug oxidation.

Series [5] concerns the target CYP2C19 (Homo sapiens, UniProt P33261). Put plainly: Cytochrome P450 inhibition in human liver microsomes. Put shortly:
(§1)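 LC–MS measurement of the metabolite formed by one CYP isoform from its probe substrate in human liver microsomes, with and without test compound, provided the data. Values are percent inhibition of that metabolic pathway.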

Series [6] addresses CYP2C9 (Homo sapiens, UniProt P11712). Described as above. Put shortly:
as §1

For series [7], the target named is CYP3A4 (Homo sapiens, UniProt P08684). The series is described as above. To be noted: for IC50: highest concentration tested 20 µM; for inhibition at 20 µM: human. Put shortly: as §1
Sequence of CYP3A4 (P08684 whole entry): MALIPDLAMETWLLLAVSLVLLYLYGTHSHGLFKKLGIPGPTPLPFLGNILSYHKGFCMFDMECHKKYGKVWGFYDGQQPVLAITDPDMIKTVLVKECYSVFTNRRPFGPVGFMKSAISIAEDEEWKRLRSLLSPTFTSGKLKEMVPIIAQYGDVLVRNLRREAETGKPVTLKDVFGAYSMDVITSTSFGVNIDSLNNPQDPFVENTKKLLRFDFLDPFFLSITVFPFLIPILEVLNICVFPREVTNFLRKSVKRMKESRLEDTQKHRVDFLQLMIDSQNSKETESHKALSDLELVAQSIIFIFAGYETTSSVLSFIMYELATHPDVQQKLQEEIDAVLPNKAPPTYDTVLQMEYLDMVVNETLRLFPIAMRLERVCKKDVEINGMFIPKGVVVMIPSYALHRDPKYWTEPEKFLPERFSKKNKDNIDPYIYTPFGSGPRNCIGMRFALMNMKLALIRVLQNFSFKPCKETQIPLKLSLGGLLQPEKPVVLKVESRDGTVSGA
[8] abbreviates: phosphate buffered saline pH 7.4, 37 °C, pH 7.4, aqueous buffer.
Setting [9] is: CYP3A4 (midaz) IC50, human liver microsomes, CYP3A4 (midaz).
The mark [10] stands for this setting: CYP3A4 (test) IC50, human liver microsomes, CYP3A4 (test).
[11] abbreviates: microsomes, pH 7.4, CYP3A4 (test) % inhibition at max conc.

From PMC6941357, “An in vitro toolbox to accelerate anti-malarial drug discovery and development” (Malaria Journal, 2020) come the findings set out here.

Where “and” joins values, the source holds several entries; their conditions need not be identical. Equal entries are not always repeated.

Sequence of CYP2C19 (P33261 whole entry, canonical isoform): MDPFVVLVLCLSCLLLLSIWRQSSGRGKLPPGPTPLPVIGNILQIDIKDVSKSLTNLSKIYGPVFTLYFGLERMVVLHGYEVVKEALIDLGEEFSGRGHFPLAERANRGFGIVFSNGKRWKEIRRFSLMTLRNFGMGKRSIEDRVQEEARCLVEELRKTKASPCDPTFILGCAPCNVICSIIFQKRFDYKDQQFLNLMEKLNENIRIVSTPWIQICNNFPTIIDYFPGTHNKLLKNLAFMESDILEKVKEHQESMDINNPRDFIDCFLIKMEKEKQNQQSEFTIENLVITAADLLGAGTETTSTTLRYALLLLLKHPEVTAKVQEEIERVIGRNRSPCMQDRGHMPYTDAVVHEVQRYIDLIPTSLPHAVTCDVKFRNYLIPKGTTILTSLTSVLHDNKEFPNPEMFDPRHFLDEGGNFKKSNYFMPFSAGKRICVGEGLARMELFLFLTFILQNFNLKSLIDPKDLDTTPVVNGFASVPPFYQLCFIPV
Sequence of CYP2C9 (P11712 whole entry): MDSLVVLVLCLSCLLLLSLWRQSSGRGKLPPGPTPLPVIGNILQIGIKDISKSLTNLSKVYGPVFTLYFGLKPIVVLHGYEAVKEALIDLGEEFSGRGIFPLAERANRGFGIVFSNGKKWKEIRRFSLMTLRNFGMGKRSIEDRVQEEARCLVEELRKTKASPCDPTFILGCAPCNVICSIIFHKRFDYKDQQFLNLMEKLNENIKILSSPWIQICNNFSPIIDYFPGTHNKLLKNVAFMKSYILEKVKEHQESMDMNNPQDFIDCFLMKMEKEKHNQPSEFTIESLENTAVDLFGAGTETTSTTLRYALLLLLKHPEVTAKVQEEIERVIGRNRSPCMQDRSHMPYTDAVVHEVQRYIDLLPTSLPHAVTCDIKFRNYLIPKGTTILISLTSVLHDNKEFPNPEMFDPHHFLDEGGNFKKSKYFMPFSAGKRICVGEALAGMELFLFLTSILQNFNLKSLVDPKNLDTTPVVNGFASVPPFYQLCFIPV

As a reminder, the solubility is how much of the substance goes into solution per volume. A high value points to much dissolved substance. A word on the Papp B→A: it is the apparent permeability from the basolateral to the apical side of a cell layer. Usually Papp A→B stands for the apparent permeability from the apical to the basolateral side of a cell layer. A high value points to ready permeation. As usually defined, the fraction unbound is the share of the substance not bound to proteins or other matrix. As usually defined, the IC50 is the concentration that inhibits the measured activity by half. Higher therefore signals weaker potency in that assay. The inhibition is the share of the control response that was lost under treatment. Lower therefore signals little suppression. For the compound `N#Cc1cc(NC(=O)[C@H]2c3ccccc3C(=O)N(CC(F)(F)F)[C@@H]2c2cccnc2)ccc1F` [SJ733], the solubility at 1 h in series [1] was > 2000 µg/mL and > 4270 µM. Besides, the solubility in series [1] (FaSSIF-V2, 37 °C, fassif) is 101 µg/mL and 216 µM; in series [1] (FeSSIF-V2, 37 °C, fessif), 119 µg/mL and 254 µM; in series [1] (setting [8]), 115 µg/mL and 246 µM. The Papp B→A in series [2] (Caco-2, pH 7.4) came to 50 ± 2 ×10⁻⁶ cm/s. The Papp A→B in series [2] (Caco-2, pH 7.4, A–B Papp, matrix: pH 7.4 buffer) is 14 ×10⁻⁶ cm/s. The fraction unbound at 6 h in series [3] came out at 0.1. This compound gave a fraction unbound at 24 h in series [3] of 0.085 ± 0.012. Besides, in series [4], the fraction unbound at […] was 0.58 ± 0.069. Moreover, the 50% inhibitory concentration (IC50) in series [5], in series [6], in series [7] (setting [9]) and in series [7] (setting [10]) was above 20 µM in each case. For the same compound, the inhibition at 20 µM in series [5] (human, microsomes, pH 7.4) was found to be 38%; in series [6] (human, microsomes, pH 7.4), 33%; in series [7] (microsomes, pH 7.4, CYP3A4 (midaz) % inhibition at max conc), 33%; in series [7] (setting [11]) it was 37%.
A word on the Ki: it is the dissociation constant of the complex between target and ligand, obtained from inhibition or displacement. Low values mean higher affinity, high ones lower affinity. For `C[C@H]1Cc2c([nH]c3cc(Cl)c(F)cc23)[C@@]2(N1)C(=O)Nc1ccc(Cl)cc12` [KAE609], the solubility at 1 h in series [1] was 1540 µg/mL and 3940 µM. The solubility in series [1] (FaSSIF-V2, 37 °C, fassif) is 111 µg/mL and 284 µM; in series [1] (FeSSIF-V2, 37 °C, fessif), 1240 µg/mL and 3180 µM; in series [1] (setting [8]), 30.4 µg/mL and 77.9 µM. The Papp B→A in series [2] (Caco-2) is above 300 ×10⁻⁶ cm/s. In addition, the Papp A→B in series [2] (Caco-2, A–B Papp, matrix: human plasma, corrected for fu) is above 300 ×10⁻⁶ cm/s. In series [3], this compound returned a fraction unbound at 6 h of 0.002. Besides, the fraction unbound at 24 h in series [3] turned out to be 0.0016 ± 0.0001. Besides, the unbound share (fraction unbound) at […] in series [4] was 0.019 ± 0.001. The IC50 was below 0.25 µM in series [5], 5.5 µM in series [6], above 20 µM in series [7] (setting [9]) and above 20 µM in series [7] (setting [10]). Further, the figures for the Ki in series [5] and in series [6] were below 0.15 µM and 4 µM, respectively. The compound further returned an inhibition at 20 µM in series [7] (setting [11]) of 30%. Moreover, the “CYP3A4 (midaz) % inhibition at max conc” value in series [7] (microsomes) is given as “nmi”.
